The values that follow are results of earlier work, collected in patent publication US8409558B2, “Method for treatment of onychomycosis” (priority 2005, dated 2013).

Structures are written as SMILES.

This series relates to onychomycosis (nail fungus).

`CN(C/C=C/C#CC(C)(C)C)Cc1cccc2ccccc12` [Lamisil, terbinafine]: for the setting “continuous oral therapy”, the complete cure is reported as 41% and the mycological cure is 71%. The “cure of all nails (complete cure of all nails after 1 yr; % effective)” value (oral therapy, Warshaw et al. JAAD October 2005) is 25%.
